By T/C is commonly meant the result in the treated group divided by that in the control group, in per cent.

Structures are written as SMILES.

What all share (assay type): functional
Test [1] has as its system B16. The test can be described thus: Antitumor activity against mouse B16 cells allografted in ip dosed BDF mouse assessed as 25% increase in life span administered for 9 days.
The test system of test [2] is B16. The experiment in a line: Antitumor activity against mouse B16 cells allografted in BDF mouse assessed as increase in life span at 25 mg/kg, ip administered for 9 days relative to untreated control. The settings on record: route intraperitoneal.
In test [3] the test system is B16. The experiment in a line: Antitumor activity against mouse B16 cells allografted in BDF mouse assessed as increase in life span at 100 mg/kg, ip administered for 9 days relative to untreated control. The settings on record: route intraperitoneal.
Test [4] concerns B16. The test can be described thus: Antitumor activity against mouse B16 cells allografted in BDF mouse assessed as increase in life span at 8 mg/kg, ip administered for 9 days relative to untreated control. To be noted: route intraperitoneal.
In test [5] the test system is B16. The experiment in a line: Antitumor activity against mouse B16 cells allografted in BDF mouse assessed as increase in life span at 4 mg/kg, ip administered for 9 days relative to untreated control. To be noted: route intraperitoneal.

Take `NC(=O)Nc1cc(NC(N)=O)cc(N(CCCl)CCCl)c1`: the “log(1/C)” value with B16 [1] is recorded as 3.69. In the test on B16 [2], the T/C amounted to 108%.

With `ClCCN(CCCl)c1ccc(/C=C/c2ccccc2)cc1`, the “log(1/C)” value with B16 [1] is 2.86. Moreover, the T/C in the test with B16 [3] was found to be 101%.

Consider `O=C(O)CCCc1ccc(N(CCCl)CCCl)cc1` [CHLORAMBUCIL], for which, in the test with B16 [1], the “log(1/C)” value was 4.7. Further, the T/C in the test on B16 [4] is on record as 133%.

`NC(Cc1ccc(N(CCCl)CCCl)cc1)C(=O)O` (stereo not drawn) [SARCOLYSIN]: the “log(1/C)” value in the test on B16 [1] worked out at 6.18. The T/C in the test on B16 [5] was determined as 236%.

(Values after ChEMBL document CHEMBL3244115 (1979).)
